From patent publication US20090124819A1, “2-SUBSTITUTED VITAMIN D DERIVATIVES” (WISCONSIN ALUMNI RESEARCH FOUNDATION, priority 2001, published 2009)

Biological target: T1, bovine thymus VDR (Bos taurus, UniProt Q28037)
T1 construct: Bovine thymus VDR was purchased from Yamasa Biochemical; purchased Yamasa Biochemical (Choshi, Chiba Prefecture, Japan) lot; 112831; host or cells: bovine thymus
T1 sequence (Q28037 1-426): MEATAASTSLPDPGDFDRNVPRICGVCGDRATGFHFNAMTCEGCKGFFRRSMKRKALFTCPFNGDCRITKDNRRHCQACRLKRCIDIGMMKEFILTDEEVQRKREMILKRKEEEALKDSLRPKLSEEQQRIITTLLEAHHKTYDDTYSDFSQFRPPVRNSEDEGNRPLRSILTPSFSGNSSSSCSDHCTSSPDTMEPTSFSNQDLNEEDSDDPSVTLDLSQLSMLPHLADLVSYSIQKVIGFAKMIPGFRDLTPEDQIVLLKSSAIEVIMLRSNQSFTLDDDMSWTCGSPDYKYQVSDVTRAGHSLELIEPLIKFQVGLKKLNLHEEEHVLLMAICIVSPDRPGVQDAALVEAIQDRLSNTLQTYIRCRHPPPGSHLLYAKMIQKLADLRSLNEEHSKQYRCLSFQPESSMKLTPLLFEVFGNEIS
Assay: Binding to bovine thymus vitamin D receptor (VDR), displacement of [3H]-1α,25-dihydroxyvitamin D3
Details: X=(y/x)×100 from concentrations inhibiting 50% of [3H]-1α,25-dihydroxyvitamin D3 binding; 1α,25-dihydroxyvitamin D3 taken as 100
Protocol: The capability of the vitamin D derivatives of the present invention to bind to bovine thymus VDR was tested.
The vitamin D derivatives of the present invention used were the compounds synthesized in the above-described examples, i.e., (5Z,7E)-(1S,3R)-2,2-dimethyl-9,10-seco-5,7,10(19)-cholestatrien-1,3,25-triol (compound 21), (5Z,7E)-(1R,3S)-2,2-dimethyl-9,10-seco-5,7,10(19)-cholestatrien-1,3,25-triol (compound 22), (5Z,7E)-(1S,3S)-2,2-dimethyl-9,10-seco-5,7,10(19)-cholestatrien-1,3,25-triol (compound 23), and (5Z,7E)-(1R,3R)-2,2-dimethyl-9,10-seco-5,7,10(19)-cholestatrien-1,3,25-triol (compound 24).
In connection with each of compounds 21 to 24 and 1α,25-dihydroxyvitamin D3 (used as a standard), ethanol solutions at various concentrations were prepared in the following manner: In the case of 1α,25-dihydroxyvitamin D3, serial dilutions were prepared at concentrations of 5 nanograms, 500 picograms, 250 picograms, 125 picograms, 63 picograms, 32 picograms, 16 picograms, 8 picograms, 4 picograms, 2 picograms, 1 picogram, 0.5 picogram, and 0.25 picogram as the amount of the compound contained in 50 microliters. In the case of the 1α,3β-compound and the 1α,3α-compound for the configurations of the substituents at the 1-position and the 3-position, serial dilutions were prepared at concentrations of 500 nanograms, 50 nanograms, 25 nanograms, 13 nanograms, 6.3 nanograms, 3.2 nanograms, 1.6 nanograms, 800 picograms, 400 picograms, 200 picograms, 20 picograms, and 2 picograms. In the case of the 1β,3β-compound and the 1β,3α-compound for the configurations of the substituents at the 1-position and the 3-position, serial dilutions were prepared at concentrations of 500 nanograms, 50 nanograms, 5 nanograms, 500 picograms, and 50 picograms.
Bovine thymus VDR was purchased from Yamasa Biochemical (Choshi, Chiba Prefecture, Japan; lot. 112831), and one ampoule thereof (ca. 25 mg) was dissolved in 55 ml of 0.05 M phosphate-0.5 M potassium buffer (pH 7.4).
The ethanol solution […] of each of compounds 21 to 24 or 1α,25-dihydroxyvitamin D3 and the receptor solution (500 μl) were placed in a test tube, and pre-incubated for 1 hour at room temperature. Then, a [^3H]-1α,25-dihydroxyvitamin D3 solution (50 μl) was added at a final concentration of 0.1 nM, and the mixture was incubated overnight at 4° C. Dextran-coated charcoal was added to the reaction mixture, followed by mixing. […] The supernatant (500 μl) was mixed with ACS-II (9.5 ml) (Amersham, England) for radioactivity measurement.
The relative VDR-binding potency of each of Compounds 21 to 24 was calculated from the following equation, with the VDR-binding potency of 1α,25-dihydroxyvitamin D3 being taken as 100. […]

| Binding potency (relative VDR-binding potency) | Structure (SMILES) |
| --- | --- |
| 3 | C=C1/C(=C\C=C2/CCC[C@@]3(C)C2CCC3[C@H](C)CCCC(C)(C)O)C[C@@H](O)C(C)(C)[C@@H]1O (stereo partly drawn) [Compound 21, (5Z,7E)-(1S,3R)-2,2-Dimethyl-9,10-seco-5,7,10(19)-cholestatrien-1,3,25-triol] |
| 0.005 | C=C1C(=CC=C2CCCC3(C)C2CCC3C(C)CCCC(C)(C)O)CC(O)C(C)(C)C1O [Compound 22, (5Z,7E)-(1R,3S)-2,2-Dimethyl-9,10-seco-5,7,10(19)-cholestatrien-1,3,25-triol] |
| <0.001 | C=C1/C(=C\C=C2/CCC[C@@]3(C)C2CCC3[C@H](C)CCCC(C)(C)O)C[C@@H](O)C(C)(C)[C@H]1O (stereo partly drawn) [Compound 24, (5Z,7E)-(1R,3R)-2,2-Dimethyl-9,10-seco-5,7,10(19)-cholestatrien-1,3,25-triol] |
| 0.06 | C=C1/C(=C\C=C2/CCC[C@@]3(C)C2CCC3[C@H](C)CCCC(C)(C)O)C[C@H](O)C(C)(C)[C@@H]1O (stereo partly drawn) [Compound 23, (5Z,7E)-(1S,3S)-2,2-Dimethyl-9,10-seco-5,7,10(19)-cholestatrien-1,3,25-triol] |
